Assay results: patent US20070269664A1, “Gas Barrier Laminated Film and Process for Producing the Same” (Sai Nippon Printing Co., Ltd., priority 2004, published 2007)

Each compound was assayed on cotton aphid (Aphis gossypii) (assay: Foliar spray test on cotton seedlings infested with cotton aphid). Conditions: 72 h, read-out: Percent Mortality.
Type: in vivo
Method: Insecticidal testing was conducted on specific compounds of the present invention. Specifically, the compounds referenced below were evaluated on 7-10 day old cotton seedlings infested with cotton aphid (Aphis gossypii). At least 12 hours prior to the test, leaf cuttings containing about 50 adult aphids were placed on leaves of each of duplicate cotton seedlings for each rate of application of compound of formula (I). Solutions of the compounds of formula (I) were prepared for testing by serial dilution of a standard solution comprised of an appropriate amount of the test material in a water/acetone solvent, which contained a small amount of a surfactant. Rates of application of compounds of formula (I) may range from about 1000 parts per million (ppm), or more, to about 3 ppm, or less, in a rate series of, for example, 1000 ppm, 300 ppm, 100 ppm, 30 ppm, 10 ppm, and 3 ppm. The solutions containing each rate of application of compounds of formula (I) were then sprayed to run-off to both the upper and lower portions of the leaves of the aphid-infested cotton seedlings. Each test of foliar-applied compounds of formula (I) included appropriate standard insecticides of known insecticidal activity and blank treatments to aid in assessing the insecticidal activity of the compounds of formula (I). Upon completion of the spraying with compounds of formula (I), the cotton seedlings were maintained in a growth chamber for a period of 72 hours. After this time, the seedlings were examined for dead insects. Insects were classified as dead if they were off-color or brown and desiccated. Upon completion of the evaluation of the test, the percent mortality of the cotton aphid for each rate of application of compounds of formula (I) was determined by comparison of the total number of dead insects to the total number of insects in the test.

Row | Structure (SMILES) | mortality at 100 ppm | mortality at 1000 ppm
1 | CCCCOc1c(C)cc(CCNn2c(C)nc3cc(F)ccc32)cc1C [Compound 329, 1-[2-(3,5-dimethyl-4-n-butoxyphenyl)ethylamino]-5-fluoro-2-methylbenzimidazole] | 93% | –
2 | CCCCOc1ccc(CCNn2c(C)nc3c(F)cccc32)cc1Cl [Compound 323, 1-[2-(3-chloro-4-n-butoxyphenyl)ethylamino]-4-fluoro-2-methylbenzimidazole] | 96% | –
3 | CCCCOc1ccc(C(C)(C)CNn2c(C)nc3ccccc32)cc1 [Compound 305, 1-[[2-methyl-2-(4-n-butoxyphenyl)propyl]amino]-2-methylbenzimidazole] | – | 96%
4 | CCON=Cc1c(F)cc(CCOn2c(C)nc3ccccc32)cc1F [Compound 1323, 1-[2-(3,5-difluoro-4-ethoxyiminomethylphenyl)ethoxy]-2-methylbenzimidazole] | 97% | –
5 | CCCCOc1ccc(CCOn2c(C)nc3c(C)cccc32)cc1Cl [Compound 266, 1-[2-(3-chloro-4-n-butoxyphenyl)ethoxy]-2,4-dimethylbenzimidazole] | – | 100%
6 | CCCCOc1ccc(CCNn2c(=O)n(C)c3ccccc32)cc1Cl [Compound 417, 1-[2-(3-chloro-4-n-butoxyphenyl)ethylamino]-1,3-dihydro-3-methyl-2H-benzimidazol-2-one] | 3% | –
7 | CCCCOc1ccc(CCNn2c(C)nc3ccccc32)cc1Cl [Compound 314, 1-[2-(3-chloro-4-n-butoxyphenyl)ethylamino]-2-methylbenzimidazole] | – | 100%
8 | CCCCOc1c(C)cc(CCNn2c(C)nc3ccccc32)cc1C [Compound 320, 1-[2-(3,5-dimethyl-4-n-butoxyphenyl)ethylamino]-2-methylbenzimidazole] | 99% | –
9 | CCCCOc1ccc(CCOn2c(C)nc3c2CCCC3)cc1Cl [Compound 244, 1-[2-(3-chloro-4-n-butoxyphenyl)ethoxy]-2-methyl-4,5,6,7-tetrahydrobenzimidazole] | – | 98%
10 | CCCCOc1ccc(CCOn2c(C)nc(C)c2C)cc1Cl [Compound 9, 1-[2-(3-chloro-4-n-butoxyphenyl)ethoxy]-2,4,5-trimethylimidazole] | – | 100%
11 | CCCCOc1ccc(CCOn2nnc3ccccc32)cc1Cl [Compound 285, 1-[2-(3-chloro-4-n-butoxyphenyl)ethoxy]-1H-benzotriazole] | – | 31%
12 | CCCCOc1ccc(CCOn2c(C)nc3ccccc32)cc1Cl [Compound 163, 1-[2-(3-chloro-4-n-butoxyphenyl)ethoxy]-2-methylbenzimidazole] | – | 88%
13 | CCCOC(=O)c1ccc(CCNn2c(C)nc3ccccc32)cc1Cl [Compound 302, propyl 2-chloro-4-[2-(2-methylbenzimidazol-1-ylamino)ethyl]benzoate] | 84% | –
14 | Cc1nc2ccccc2n1OCCc1ccc(C(C)(C)C)c(Cl)c1 [Compound 135, 1-[2-[3-chloro-4-(1,1-dimethylethyl)phenyl]ethoxy]-2-methylbenzimidazole] | – | 86%
15 | CCCC(CCC)Oc1ccc(CCOn2c(C)nc3c(C)cccc32)cc1 [Compound 413, 1-[2-[4-(1-propylbutoxy)phenyl]ethoxy]-2,4-dimethylbenzimidazole] | 80% | –
16 | CCCCOc1ccc(CCOn2c(C)nc3c(F)cccc32)cc1Cl [Compound 246, 1-[2-(3-chloro-4-n-butoxyphenyl)ethoxy]-4-fluoro-2-methylbenzimidazole] | – | 100%
